Series [1] can be described thus: Cytotoxicity in HepG2 cells, Resazurin assay. The note with it: human, HepG2 cells, TOX-HepG2-4 d CC50 (μM), HepG2 cells incubated for 4 days, viability by Resazurin assay. On the technique in general: Resazurin is reduced to fluorescent resorufin, in cell work by metabolically active cells.
The test system of another series is HBV. Description: anti HBV activity, HepG2.117 cell line, intracellular HBV DNA by realtime PCR. The format is cell-based. The note with it: HepG2.117 cell line (Tet-off), 3 days of treatment, intracellular HBV DNA quantified by realtime PCR, read-out: HBV-AVE-HepG2.117 EC50. In a few lines: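 HepG2.117 cells, a Tet-off line that replicates HBV without doxycycline, were induced and then treated in duplicate with serially diluted compound. After 3 days, intracellular HBV DNA was quantified by real-time PCR with an HBV-specific primer set and probe.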

[2] abbreviates: Hepatitis B virus, HepG2.117, 72 h.

Read-outs that look alike come from different tables or passages of the source. Where only a bound is given, the exact number is not on record here.

For the compound `Cn1cc2c(c1C(=O)Nc1ccc(F)c(F)c1)OCC1(CC1)NS2(=O)=O` [Compound 19, N-(3,4-difluorophenyl)-7-methyl-1,1-dioxo-spiro[2,4-dihydropyrrolo-[3,4-b][1,4,5]oxathiazepine-3,1′-cyclopropane]-6-carboxamide], the CC50 (as a rule, the concentration at which the toxic effect on the cells reaches its halfway point) at 4 days in series [1] was over 25 µM. Further, the EC50 – broadly, the midpoint of the concentration-response curve – with HBV (setting [2]) was 190 nM.
For the compound `Cc1cc(CC2(C)COc3c(cn(C)c3C(=O)Nc3ccc(F)c(F)c3)S(=O)(=O)N2)no1` (single isomer, unassigned) [Compound 162a, N-(3,4-difluorophenyl)-3,7-dimethyl-3-[(5-methylisoxazol-3-yl)methyl]-1,1-dioxo-2,4-dihydropyrrolo[3,4-b][1,4,5]oxathiazepine-6-carboxamide], the 50% cytotoxic concentration (CC50) at 4 days in series [1] is over 25 µM. Moreover, the EC50 in the series on HBV came out at 33 nM.
The compound `CC(C)[C@@H]1COc2c(cn(C)c2C(=O)Nc2ccc(F)c(F)c2)S(=O)(=O)N1` [Compound 27, (3R)—N-(3,4-difluorophenyl)-3-isopropyl-7-methyl-1,1-dioxo-3,4-dihydro-2H-pyrrolo[3,4-b][1,4,5]oxathiazepine-6-carboxamide] displayed a CC50 at 4 days in series [1] of over 25 µM. Further, the EC50 in the series with HBV (setting [2]) came out at 110 nM.
`Cc1cc(NC(=O)c2c3c(cn2C)S(=O)(=O)N[C@@H](Cc2cccnc2)CO3)ccc1F` [Compound 74, (3S)—N-(4-fluoro-3-methyl-phenyl)-7-methyl-1,1-dioxo-3-(3-pyridylmethyl)-3,4-dihydro-2H-pyrrolo[3,4-b][1,4,5]oxathiazepine-6-carboxamide]: the CC50 at 4 days in series [1] was over 25 µM. Also, the half-maximal effective concentration (EC50) with HBV (setting [2]) was determined as 52 nM.
For the compound `Cc1cc(NC(=O)c2c3c(cn2C)S(=O)(=O)N[C@@H]([C@H](C)O)C=C3)ccc1F` [Compound 99, (3R)—N-(4-fluoro-3-methyl-phenyl)-3-[(1S)-1-hydroxyethyl]-7-methyl-1,1-dioxo-2,3-dihydropyrrolo[3,4-f]thiazepine-6-carboxamide], in series [1], the CC50 at 4 days was over 25 µM. Besides, the concentration for a half-maximal effect (EC50) with HBV (setting [2]) is 4 nM.
In the case of `CC(C)C(O)C1COc2c(cn(C)c2C(=O)Nc2ccc(F)c(F)c2)S(=O)(=O)N1` (single isomer, unassigned) [Compound 114a, N-(3,4-difluorophenyl)-3-(1-hydroxy-2-methyl-propyl)-7-methyl-1,1-dioxo-3,4-dihydro-2H-pyrrolo[3,4-b][1,4,5]oxathiazepine-6-carboxamide], the cytotoxic concentration (CC50) at 4 days in series [1] is over 25 µM. In addition, the half-maximal effective concentration (EC50) in the series on HBV amounted to 22 nM.
For the compound `CC(C)[C@H]1Oc2c(cn(C)c2C(=O)Nc2ccc(F)c(F)c2)S(=O)(=O)N[C@@H]1CO` [compound 240], the CC50 at 4 days in series [1] was over 25 µM. Moreover, the EC50 with HBV (setting [2]) was over 250 nM.
As for `C[C@H](O)[C@H]1CCc2c(cn(C)c2C(=O)Nc2ccc(F)c(F)c2)S(=O)(=O)N1` [Compound 88, (3R)—N-(3,4-difluorophenyl)-3-[(1S)-1-hydroxyethyl]-7-methyl-1,1-dioxo-2,3,4,5-tetrahydropyrrolo[3,4-f]thiazepine-6-carboxamide], the half-maximal cytotoxic concentration (CC50) at 4 days in series [1] is over 25 µM. Moreover, the EC50 in the series with HBV (setting [2]) is 11 nM.
For `Cn1cc2c(c1C(=O)Nc1ccc(F)c(C#N)c1)CCC(C(C)(F)F)NS2(=O)=O` (stereo not shown) [Compound 118, N-(3-cyano-4-fluoro-phenyl)-3-(1,1-difluoroethyl)-7-methyl-1,1-dioxo-2,3,4,5-tetrahydropyrrolo[3,4-f]thiazepine-6-carboxamide] the same measures were over 25 µM and 13 nM.
The compound `C[C@H]1C=Cc2c(cn(C)c2C(=O)Nc2ccc(F)c(C(F)(F)F)c2)S(=O)(=O)N1` (single isomer, unassigned) [Compound 30, (*S)—N-[4-fluoro-3-(trifluoromethyl)phenyl]-3,7-dimethyl-1,1-dioxo-2,3-dihydropyrrolo[3,4-f]thiazepine-6-carboxamide] showed a 50% cytotoxic concentration (CC50) at 4 days in series [1] of over 25 µM. In addition, in the series on HBV (setting [2]), the half-maximal effective concentration (EC50) was determined as 13 nM.
The corresponding values for `Cc1cc(NC(=O)c2c3c(cn2C)S(=O)(=O)N[C@@H](C)C=C3)ccc1F` (single isomer, unassigned) [Compound 31, (*S)—N-(4-fluoro-3-methyl-phenyl)-3,7-dimethyl-1,1-dioxo-2,3-dihydropyrrolo[3,4-f]thiazepine-6-carboxamide] are over 25 µM and 9 nM.
Turning to `Cc1cccc(C2(C)COc3c(cn(C)c3C(=O)Nc3ccc(F)c(F)c3)S(=O)(=O)N2)n1` (racemic) [Compound 168, N-(3,4-difluorophenyl)-3,7-dimethyl-3-(6-methyl-2-pyridyl)-1,1-dioxo-2,4-dihydropyrrolo[3,4-b][1,4,5]oxathiazepine-6-carboxamide], the CC50 at 4 days in series [1] was over 25 µM. Further, the EC50 in the series on HBV (setting [2]) stood at 25 nM.
The corresponding values for `CC1CCCC/C=C/Cc2c(cn(C)c2C(=O)Nc2ccc(F)c(F)c2)S(=O)(=O)N1` (stereo not shown) [Compound 1, (9E)-N-(3,4-difluorophenyl)-4,14-dimethyl-2,2-dioxo-2λ^6-thia-3,14-diazabicyclo[10.3.0]pentadeca-1(15),9,12-triene-13-carboxamide] are over 25 µM and 2740 nM.
With `C[C@H]1CCc2c(cn(C)c2C(=O)Nc2ccc(F)c(C(F)F)c2)S(=O)(=O)N1` (single isomer, unassigned) [Compound 55, (3*S)—N-[3-(difluoromethyl)-4-fluoro-phenyl]-3,7-dimethyl-1,1-dioxo-2,3,4,5-tetrahydropyrrolo[3,4-f]thiazepine-6-carboxamide], in series [1], the cytotoxic concentration (CC50) at 4 days was over 25 µM. In addition, in the series on HBV (setting [2]), the EC50 stood at 3 nM.
In turn, `Cn1cc2c(c1C(=O)Nc1ccc(F)c(F)c1)OC[C@@H](C(O)C1CC1)NS2(=O)=O` (single isomer, unassigned) [Compound 92a] gave a cytotoxic concentration (CC50) at 4 days in series [1] of over 24 µM. The EC50 in the series with HBV came out at 31 nM.
In turn, `C[C@H]1CCc2c(cn(C)c2C(=O)Nc2cc(F)c(F)c(F)c2)S(=O)(=O)N1` (single isomer, unassigned) [Compound 39, (3*S)-3,7-dimethyl-1,1-dioxo-N-(3,4,5-trifluorophenyl)-2,3,4,5-tetrahydropyrrolo[3,4-f]thiazepine-6-carboxamide] displayed a half-maximal cytotoxic concentration (CC50) at 4 days in series [1] of over 25 µM. In addition, the half-maximal effective concentration (EC50) in the series with HBV (setting [2]) was 3 nM.
`Cn1cc2c(c1C(=O)Nc1ccc(F)c(F)c1)OCC(C1CCNCC1)NS2(=O)=O` (stereo not shown) [Compound 73, N-(3,4-difluorophenyl)-7-methyl-1,1-dioxo-3-(4-piperidyl)-3,4-dihydro-2H-pyrrolo[3,4-b][1,4,5]oxathiazepine-6-carboxamide]: the cytotoxic concentration (CC50) at 4 days in series [1] is over 25 µM. For the same compound, the EC50 in the series with HBV (setting [2]) was 480 nM.
In the case of `Cc1cc(NC(=O)c2c3c(cn2C)S(=O)(=O)NC(C(C)C)CC3)ccc1F` (stereo not shown) [Compound 109, N-(4-fluoro-3-methyl-phenyl)-3-isopropyl-7-methyl-1,1-dioxo-2,3,4,5-tetrahydropyrrolo[3,4-f]thiazepine-6-carboxamide], in series [1], the CC50 at 4 days is over 25 µM. The concentration for a half-maximal effect (EC50) in the series on HBV (setting [2]) is 3 nM.
For `CN(C)CC1COc2c(cn(C)c2C(=O)Nc2ccc(F)c(F)c2)S(=O)(=O)N1` (stereo not shown) [Compound 110, N-(3,4-difluorophenyl)-3-(dimethylaminomethyl)-7-methyl-1,1-dioxo-3,4-dihydro-2H-pyrrolo[3,4-b][1,4,5]oxathiazepine-6-carboxamide] the same measures were over 25 µM and 200 nM.
For `Cn1cc2c(c1C(=O)Nc1ccnc(C(F)F)c1)C=CC(C(F)F)NS2(=O)=O` (stereo not shown) [compound 247] the same measures were over 25 µM and over 130 nM.
The corresponding values for `CCC1Cc2c(cn(C)c2C(=O)Nc2ccc(F)c(F)c2)S(=O)(=O)N1` (stereo not shown) [Compound 17, N-(3,4-difluorophenyl)-3-ethyl-6-methyl-1,1-dioxo-3,4-dihydro-2H-pyrrolo[3,4-e]thiazine-5-carboxamide] are over 25 µM and under 98 nM.
Take `C[C@H](O)[C@H]1C=Cc2c(cn(C)c2C(=O)Nc2ccnc(Br)c2)S(=O)(=O)N1` [Compound 97, (3R)—N-(2-bromo-4-pyridyl)-3-[(1S)-1-hydroxyethyl]-7-methyl-1,1-dioxo-2,3-dihydropyrrolo[3,4-f]thiazepine-6-carboxamide]: in series [1], the 50% cytotoxic concentration (CC50) at 4 days is over 25 µM. Besides, the concentration for a half-maximal effect (EC50) in the series on HBV (setting [2]) worked out at 55 nM.
For the compound `CC1CCc2c(cn(C)c2C(=O)Nc2ccc(F)c(F)c2)S(=O)(=O)N1` (single isomer, unassigned) [Compound 10a, N-(3,4-difluorophenyl)-3,7-dimethyl-1,1-dioxo-2,3,4,5-tetrahydropyrrolo[3,4-f]thiazepine-6-carboxamide], in series [1], the CC50 at 4 days was over 25 µM. In addition, in the series with HBV, the EC50 is 220 nM.
`CCC(O)[C@@H]1COc2c(cn(C)c2C(=O)Nc2ccc(F)c(F)c2)S(=O)(=O)N1` (single isomer, unassigned) [Compound 142a, N-(3,4-difluorophenyl)-3-(1-hydroxypropyl)-7-methyl-1,1-dioxo-3,4-dihydro-2H-pyrrolo[3,4-b][1,4,5]oxathiazepine-6-carboxamide] showed a half-maximal cytotoxic concentration (CC50) at 4 days in series [1] of over 25 µM. In the series on HBV (setting [2]), the EC50 is 65 nM.
Take `Cn1cc2c(c1C(=O)Nc1ccc(F)c(Cl)c1)OCC1(CCOC1)NS2(=O)=O` (racemic) [Compound 212, N-(3-chloro-4-fluoro-phenyl)-7-methyl-1,1-dioxo-spiro[2,4-dihydropyrrolo[3,4-b][1,4,5]oxathiazepine-3,3′-tetrahydrofuran]-6-carboxamide]: in series [1], the CC50 at 4 days is over 25 µM. In the series on HBV (setting [2]), the concentration for a half-maximal effect (EC50) is 7 nM.
`Cc1cc(CC2(C)COc3c(cn(C)c3C(=O)Nc3ccc(F)c(C(F)F)c3)S(=O)(=O)N2)n(C)n1` (single isomer, unassigned) [Compound 176a, N-[3-(difluoromethyl)-4-fluoro-phenyl]-3-[(2,5-dimethylpyrazol-3-yl)methyl]-3,7-dimethyl-1,1-dioxo-2,4-dihydropyrrolo[3,4-b][1,4,5]oxathiazepine-6-carboxamide]: the CC50 at 4 days in series [1] was over 25 µM. Further, in the series with HBV (setting [2]), the EC50 was found to be 12 nM.
